From PubChem BioAssay (NCI)
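GI50: concentration for 50% inhibition of growth. TGI marks complete inhibition of growth.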

Assays:
Assay in all cases: DTP human tumour cell line panel, 384-well format
786-0 renal = system: 786-0 renal
A498 renal = system: A498 renal
A549 NSCLC = system: A549 NSCLC
ACHN renal = system: ACHN renal
BT-549 breast = system: BT-549 breast
CAKI-1 renal = system: CAKI-1 renal
CCRF-CEM leukemia = system: CCRF-CEM leukemia
COLO 205 colon = system: COLO 205 colon
DU-145 prostate = system: DU-145 prostate
EKVX NSCLC = system: EKVX NSCLC
HCC-2998 colon = system: HCC-2998 colon
HCT-15 colon = system: HCT-15 colon
HL-60(TB) leukemia = system: HL-60(TB) leukemia
HOP-62 NSCLC = system: HOP-62 NSCLC
HOP-92 NSCLC = system: HOP-92 NSCLC
HS 578T breast = system: HS 578T breast
HT29 colon = system: HT29 colon
IGROV1 ovarian = system: IGROV1 ovarian
K-562 leukemia = system: K-562 leukemia
KM12 colon = system: KM12 colon
LOX IMVI melanoma = system: LOX IMVI melanoma
M14 melanoma = system: M14 melanoma
MALME-3M melanoma = system: MALME-3M melanoma
MCF7 breast = system: MCF7 breast
MDA-MB-231 breast = system: MDA-MB-231 breast
MDA-MB-435 melanoma = system: MDA-MB-435 melanoma
MDA-MB-468 breast = system: MDA-MB-468 breast
MOLT-4 leukemia = system: MOLT-4 leukemia
NCI-H226 lung = system: NCI-H226 lung
NCI-H23 lung = system: NCI-H23 lung
NCI-H322M lung = system: NCI-H322M lung
NCI-H460 NSCLC = system: NCI-H460 NSCLC
NCI-H522 lung = system: NCI-H522 lung
NCI/ADR-RES ovarian = system: NCI/ADR-RES ovarian
OVCAR-3 ovarian = system: OVCAR-3 ovarian
OVCAR-4 ovarian = system: OVCAR-4 ovarian
OVCAR-5 ovarian = system: OVCAR-5 ovarian
OVCAR-8 ovarian = system: OVCAR-8 ovarian
PC-3 prostate = system: PC-3 prostate
RPMI-8226 leukemia = system: RPMI-8226 leukemia
RXF 393 renal = system: RXF 393 renal
SF-268 CNS = system: SF-268 CNS
SF-295 CNS = system: SF-295 CNS
SF-539 CNS = system: SF-539 CNS
SK-MEL-28 melanoma = system: SK-MEL-28 melanoma
SK-MEL-5 melanoma = system: SK-MEL-5 melanoma
SK-OV-3 ovarian = system: SK-OV-3 ovarian
SN12C renal = system: SN12C renal
SNB-19 CNS = system: SNB-19 CNS
SNB-75 CNS = system: SNB-75 CNS
SR leukemia = system: SR leukemia
SW-620 colon = system: SW-620 colon
T-47D breast = system: T-47D breast
TK-10 renal = system: TK-10 renal
U251 glioblastoma = system: U251 glioblastoma
UACC-257 melanoma = system: UACC-257 melanoma
UACC-62 melanoma = system: UACC-62 melanoma
UO-31 renal = system: UO-31 renal

Cc1c(CN2CCN(C(=O)[C@H](C)O)CC2)sc2c(N3CCOCC3)nc(-c3cnc(N)nc3)nc12
GI50 ([…]-0 renal): 350 nM
TGI (786-0 renal): 2860 nM
GI50 (A498 renal): 88.2 nM
TGI (A498 renal): 473 nM
GI50 (A549 NSCLC): 261 nM
TGI (A549 NSCLC): 2600 nM
GI50 (ACHN renal): 193 nM
TGI (ACHN renal): 1150 nM
GI50 (BT-549 breast): 197 nM
TGI (BT-549 breast): 922 nM
GI50 (CAKI-1 renal): 197 nM
TGI (CAKI-1 renal): 2820 nM
GI50 (CCRF-CEM leukemia): 361 nM
TGI (CCRF-CEM leukemia): 1920 nM
GI50 (COLO 205 colon): 208 nM
TGI (COLO 205 colon): 1370 nM
GI50 (DU-145 prostate): 272 nM
TGI (DU-145 prostate): 4100 nM
GI50 (EKVX NSCLC): 173 nM
TGI (EKVX NSCLC): 1010 nM
GI50 (HCC-2998 colon): 404 nM
TGI (HCC-2998 colon): 14700 nM
GI50 (HCT-15 colon): 198 nM
TGI (HCT-15 colon): > 100000 nM
GI50 (HL-60(TB) leukemia): 121 nM
TGI (HL-60(TB) leukemia): 577 nM
GI50 (HOP-62 NSCLC): 292 nM
TGI (HOP-62 NSCLC): 2920 nM
GI50 (HOP-92 NSCLC): 84.9 nM
TGI (HOP-92 NSCLC): 446 nM
GI50 (HS 578T breast): 139 nM
TGI (HS 578T breast): 419 nM
GI50 (HT29 colon): 246 nM
TGI (HT29 colon): > 100000 nM
GI50 (IGROV1 ovarian): 41.6 nM
TGI (IGROV1 ovarian): 192 nM
GI50 (K-562 leukemia): 943 nM
TGI (K-562 leukemia): > 100000 nM
GI50 (KM12 colon): 354 nM
TGI (KM12 colon): 6970 nM
GI50 (LOX IMVI melanoma): 239 nM
TGI (LOX IMVI melanoma): 1130 nM
GI50 (M14 melanoma): 228 nM
TGI (M14 melanoma): 3710 nM
GI50 (MALME-3M melanoma): 51 nM
TGI (MALME-3M melanoma): 286 nM
GI50 (MCF7 breast): 48.5 nM
TGI (MCF7 breast): > 100000 nM
GI50 (MDA-MB-231 breast): 290 nM
TGI (MDA-MB-231 breast): > 100000 nM
GI50 (MDA-MB-435 melanoma): 230 nM
TGI (MDA-MB-435 melanoma): 1530 nM
GI50 (MDA-MB-468 breast): 97.6 nM
TGI (MDA-MB-468 breast): 352 nM
GI50 (MOLT-4 leukemia): 97.5 nM
TGI (MOLT-4 leukemia): 282 nM
GI50 (NCI-H226 lung): 158 nM
TGI (NCI-H226 lung): 784 nM
GI50 (NCI-H23 lung): 179 nM
TGI (NCI-H23 lung): 5800 nM
GI50 (NCI-H322M lung): 244 nM
TGI (NCI-H322M lung): 6600 nM
GI50 (NCI-H460 NSCLC): 78.6 nM
TGI (NCI-H460 NSCLC): > 100000 nM
GI50 (NCI-H522 lung): 208 nM
TGI (NCI-H522 lung): 974 nM
GI50 (NCI/ADR-RES ovarian): 651 nM
TGI (NCI/ADR-RES ovarian): > 100000 nM
GI50 (OVCAR-3 ovarian): 211 nM
TGI (OVCAR-3 ovarian): 1740 nM
GI50 (OVCAR-4 ovarian): 128 nM
TGI (OVCAR-4 ovarian): 726 nM
GI50 (OVCAR-5 ovarian): 137 nM
TGI (OVCAR-5 ovarian): 823 nM
GI50 (OVCAR-8 ovarian): 333 nM
TGI (OVCAR-8 ovarian): > 100000 nM
GI50 (PC-3 prostate): 149 nM
TGI (PC-3 prostate): 2430 nM
GI50 (RPMI-8226 leukemia): 54.4 nM
TGI (RPMI-8226 leukemia): 200 nM
GI50 (RXF 393 renal): 352 nM
TGI (RXF 393 renal): 2330 nM
GI50 (SF-268 CNS): 386 nM
TGI (SF-268 CNS): 16600 nM
GI50 (SF-295 CNS): 148 nM
TGI (SF-295 CNS): 695 nM
GI50 (SF-539 CNS): 300 nM
TGI (SF-539 CNS): 3070 nM
GI50 (SK-MEL-28 melanoma): 154 nM
TGI (SK-MEL-28 melanoma): 719 nM
GI50 (SK-MEL-5 melanoma): 119 nM
TGI (SK-MEL-5 melanoma): 386 nM
GI50 (SK-OV-3 ovarian): 133 nM
TGI (SK-OV-3 ovarian): 448 nM
GI50 (SN12C renal): 148 nM
TGI (SN12C renal): 694 nM
GI50 (SNB-19 CNS): 2490 nM
TGI (SNB-19 CNS): > 100000 nM
GI50 (SNB-75 CNS): 143 nM
TGI (SNB-75 CNS): 775 nM
GI50 (SR leukemia): 176 nM
TGI (SR leukemia): 609 nM
GI50 (SW-620 colon): 594 nM
TGI (SW-620 colon): > 100000 nM
GI50 (T-47D breast): 25.9 nM
TGI (T-47D breast): 110 nM
GI50 (TK-10 renal): 223 nM
TGI (TK-10 renal): 1380 nM
GI50 (U251 glioblastoma): 1060 nM
TGI (U251 glioblastoma): > 100000 nM
GI50 (UACC-257 melanoma): 185 nM
TGI (UACC-257 melanoma): 884 nM
GI50 (UACC-62 melanoma): 211 nM
TGI (UACC-62 melanoma): 1200 nM
GI50 (UO-31 renal): 295 nM
TGI (UO-31 renal): > 100000 nM
